This passage reports Ki results from US8722682B2, “Sulfated benzimidazolone derivatives having mixed serotonin receptor affinity” (Sprout Pharmaceuticals, Inc., priority 2006, dated 2014).

Each structure is given as a SMILES string.

The target in assay [1] is T1, 5-HT1A receptor (Homo sapiens, UniProt P08908).
T1 construct: expressed in transfected cells; host or cells: CHO-K1
T1 sequence (P08908 1-422): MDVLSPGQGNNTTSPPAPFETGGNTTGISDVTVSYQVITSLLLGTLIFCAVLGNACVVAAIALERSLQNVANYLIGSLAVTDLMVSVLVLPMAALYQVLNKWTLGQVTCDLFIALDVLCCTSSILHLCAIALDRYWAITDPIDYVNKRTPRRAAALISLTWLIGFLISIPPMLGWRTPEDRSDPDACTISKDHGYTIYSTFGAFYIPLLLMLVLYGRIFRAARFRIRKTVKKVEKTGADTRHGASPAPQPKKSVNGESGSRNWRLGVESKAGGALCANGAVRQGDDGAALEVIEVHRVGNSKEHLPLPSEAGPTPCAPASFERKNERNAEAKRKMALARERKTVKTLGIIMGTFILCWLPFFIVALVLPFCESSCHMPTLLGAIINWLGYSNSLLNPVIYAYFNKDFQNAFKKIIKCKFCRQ
Nature of the assay: 5-HT1A receptor binding, [3H]-8-OH-DPAT displacement. Particulars: human recombinant CHO-K1 cells, [3H]-8-OH-DPAT 1.5 nM. The method, then: (§1) Binding studies can be carried out to determine the affinity of the compounds for 5-HT1A and 5-HT2A receptors
Human recombinant CHO-K1 cells are used. Displacement experiments can be performed by incubating the cells in 50 mM Tris-HCL, pH 7.4, 0.1% ascorbic acid, 0.5 mM EDTA, 10 mM MgSo4 and in the presence of [^3H]-8-OH-DPAT (1.5 nM) at 27° C. for 60 min. Non specific binding was determined in the presence of 10 μM mertergoline.
The test compounds dissolved in DMSO, along with the positive control compound metergoline are tested over 10-log unit concentrations for their ability to compete for [^3H]8-OH-DPAT binding (May J A, et al., J Pharmacol Exp Ther. 306(1):301, 2003. Martin G R and Humphrey P P A Neuropharmacol. 33:261, 1994). […] The radioactivity is counted on a β-counter, and the data are analyzed by a nonlinear, iterative, curve-fitting computer program.
Where presented, IC50 values are determined by a non-linear, least squares regression analysis using Data Analysis Toolboxä (MDL Information Systems, San Leandro, Calif., USA). Where inhibition constants (Ki) are presented, the Ki values are calculated using the equation of Cheng and Prusoff (Cheng, Y., Prusoff, W. H., Biochem. Pharmacol. 22:3099-3108, 1973) using the observed IC50 of the tested compound, the concentration of radioligand employed in the assay, and the historical values for the Ki of the ligand).

For assay [2], the target named is T2, 5-HT2A receptor (Homo sapiens, UniProt P28223).
T2 construct: expressed in transfected cells; host or cells: CHO-K1
T2 sequence (P28223 whole entry): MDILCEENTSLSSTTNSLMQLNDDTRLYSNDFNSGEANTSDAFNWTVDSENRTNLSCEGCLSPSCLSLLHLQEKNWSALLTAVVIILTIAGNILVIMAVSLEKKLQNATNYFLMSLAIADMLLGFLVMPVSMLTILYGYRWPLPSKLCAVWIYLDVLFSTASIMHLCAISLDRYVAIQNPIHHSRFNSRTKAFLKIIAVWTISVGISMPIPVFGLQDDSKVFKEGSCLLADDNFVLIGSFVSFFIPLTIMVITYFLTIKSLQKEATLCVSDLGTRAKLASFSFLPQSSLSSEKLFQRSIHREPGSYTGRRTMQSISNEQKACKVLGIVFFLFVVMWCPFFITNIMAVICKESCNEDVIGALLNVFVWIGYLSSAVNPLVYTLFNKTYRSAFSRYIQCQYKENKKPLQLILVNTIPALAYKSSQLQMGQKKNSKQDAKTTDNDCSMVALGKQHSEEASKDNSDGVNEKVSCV
Nature of the assay: 5-HT2A receptor binding, [3H]-Ketanserin displacement. Particulars: human recombinant CHO-K1 cells, [3H]-Ketanserin 0.5 nM. On the procedure:
as §1
Human recombinant CHO-K1 cells can be used. Displacement experiments are performed by incubating the cells in 50 mM Tris-HCL, pH 7.7 in the presence of [^3H]-Ketanserin (0.5 nM) at 25° C. for 60 min. Non specific binding was determined in the presence of 1 μM Mianserin.
The test compounds, along with the positive control compound ketanserin are tested over 10-log unit concentrations for their ability to compete for [^3H]-Ketanserin (Saucier C and Albert P R. J. Neurochem. 68:1998, 1997. Bonhaus D W et al., Br J Pharmacol. 115:622, 1995). The assays are terminated by rapid vacuum filtration over glass fiber filters. The radioactivity is counted on a β-counter, and the data are analyzed by a nonlinear, iterative, curve-fitting computer program. Where presented, IC50 values are determined by a non-linear, least squares regression analysis using Data Analysis Toolboxä (MDL Information Systems, San Leandro, Calif., USA). Where inhibition constants (Ki) are presented, the Ki values are calculated using the equation of Cheng and Prusoff (Cheng, Y., Prusoff, W. H., Biochem. Pharmacol. 22:3099-3108, 1973) using the observed IC50 of the tested compound, the concentration of radioligand employed in the assay, and the historical values for the Ki of the ligand).

For the compound `O=c1[nH]c2ccc(OS(=O)(=O)O)cc2n1CCN1CCN(c2cccc(C(F)(F)F)c2)CC1` [I(b), {2-oxo-3-{2-[4-(3-trifluoromethyl-phenyl)-piperazin-1-yl]-ethyl}-2,3-dihydro-1H-benzimidazol-5-yl}mono sulfuric acid ester], the Ki – broadly, a dissociation constant, usually derived from enzyme kinetics or from competition with a known ligand – in assay [1] stood at 808 nM; in assay [2], 207 nM.
